From patent publication US20260022142A1, “MACROCYCLIC IMMUNOMODULATORS” (Bristol-Myers Squibb Company, priority 2022, published 2026) come the findings set out here.

Bridge positions count the residues as written; N and C are the ends. Square brackets hold non-standard residues; d marks the D form. Peptide text beside a SMILES is read from it. * marks the point of attachment. ξ: configuration not given here. Ala(morpholin-4-yl) = N[C@@H](CN1CCOCC1)C(=O)O; Phe(4-COOH) = N[C@@H](Cc1ccc(C(=O)O)cc1)C(=O)O; Bip = N[C@@H](Cc1ccc(-c2ccccc2)cc1)C(=O)O; Phe(3-Me) = Cc1cccc(C[C@H](N)C(=O)O)c1; Val(3-OH) = CC(C)(O)[C@H](N)C(=O)O; hhPhe = N[C@@H](CCCc1ccccc1)C(=O)O; hArg = N=C(N)NCCCC[C@H](N)C(=O)O; 4Pal = N[C@@H](Cc1ccncc1)C(=O)O; Cha = N[C@@H](CC1CCCCC1)C(=O)O; Cit = NC(=O)NCCC[C@H](N)C(=O)O; Thr(3ξ) = CC(O)[C@H](N)C(=O)O; Carboxymethyl = O=C(O)C*; Orn = NCCC[C@H](N)C(=O)O; Pra = C#CC[C@H](N)C(=O)O; Aun = NCCCCCCCCCCC(=O)O; Dab = NCC[C@H](N)C(=O)O; Dap = NC[C@H](N)C(=O)O; AEEA = NCCOCCOCC(=O)O

For the assay, the target named is T1, PD-1/PD-L1 interaction (PE-labeled human PD-L1-Ig binding to Jurkat cell line over-expressing human PD-1) (Homo sapiens, UniProt Q15116).
T1 construct: expressed in transfected cells; host or cells: Jurkat
T1 sequence (Q15116 25-288): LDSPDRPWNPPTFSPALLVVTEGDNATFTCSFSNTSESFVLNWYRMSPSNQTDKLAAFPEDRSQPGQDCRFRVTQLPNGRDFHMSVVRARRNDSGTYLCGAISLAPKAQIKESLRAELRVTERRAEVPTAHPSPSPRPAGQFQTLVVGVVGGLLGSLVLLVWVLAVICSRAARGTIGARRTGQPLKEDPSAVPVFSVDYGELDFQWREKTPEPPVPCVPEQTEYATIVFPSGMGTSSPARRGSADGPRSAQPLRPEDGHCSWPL
Kind of assay: Jurkat-PD-1 Cell Binding High-Content Screening Assay (CBA). It is filed as cell-based. The conditions noted are these: Jurkat cell line over-expressing human PD-1; PE-labeled PD-L1-Ig 20 nM final; read-out: Jurkat hPD1-PDL1 IC50. In outline: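 Read-out is high-content imaging of cell-bound phycoerythrin-tagged PD-L1-Ig on fixed, Hoechst-counterstained Jurkat cells that over-express human PD-1. Compound exposure lasts 2 h at 37° C before the labeled ligand (20 nM final) is added for a further hour.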
For orientation: IC50 means the concentration that gives 50% inhibition. In the case of `Cc1cccc(C[C@@H]2NC(=O)[C@H](CC(=O)O)NC(=O)[C@H](Cc3ccc(OCC(=O)O)cc3)NC(=O)[C@H](CCCNC(=N)N)NC(=O)CSC[C@@H](C(=O)N[C@@H](CCN)C(=O)NCCCCCCCCCCC(=O)O)NC(=O)[C@H](CCC(=O)O)NC(=O)[C@H](C(C)C)NC(=O)[C@H](CC3CCCCC3)NC(=O)[C@H](CCN)NC(=O)[C@@H](CC(C)C)NC(=O)[C@H](CCN)NC(=O)[C@H](Cc3ccc(O)cc3)NC(=O)[C@H](Cc3ccc(-c4ccccc4)cc3)NC(=O)[C@H](C(C)C)NC2=O)c1` [Compound 2818] ({CH2CO}-RY(Carboxymethyl)D[Phe(3-Me)]V[Bip]Y[Dab][dL][Dab][Cha]VEC[Dab][Aun]-OH; thioether N-14), the IC50 stood at 23.3 nM.

Turning to `CC(C)C[C@H]1NC(=O)[C@H](CCCN)NC(=O)[C@H](Cc2ccc(O)cc2)NC(=O)[C@H](Cc2ccc(-c3ccccc3)cc2)NC(=O)[C@H](C(C)C)NC(=O)[C@H](Cc2c[nH]c3ccccc23)NC(=O)[C@H](CC(=O)O)NC(=O)[C@H](Cc2ccc(OCC(=O)O)cc2)NC(=O)[C@H](CN)NC(=O)CSC[C@@H](C(=O)N[C@@H](CCN)C(=O)NCCOCCOCC(=O)NCCCCCCCCCCC(=O)O)NC(=O)[C@H](CCCN)NC(=O)[C@H](C(C)C)NC(=O)[C@H](CC2CCCCC2)NC(=O)[C@H](CCN)NC1=O` [Compound 1290] ({CH2CO}-[Dap]Y(Carboxymethyl)DWV[Bip]Y[Orn][dL][Dab][Cha]V[Orn]C[Dab][AEEA][Aun]-OH; thioether N-14), the IC50 is 12.5 nM.

As for `Cc1cccc(C[C@@H]2NC(=O)[C@H](CC(=O)O)NC(=O)[C@H](Cc3ccc(OCC(=O)O)cc3)NC(=O)[C@H](CCN)NC(=O)CSC[C@@H](C(=O)N[C@@H](CCN)C(=O)NCCCCCCCCCCC(=O)O)NC(=O)[C@H](CO)NC(=O)[C@H](C(C)(C)O)NC(=O)[C@H](CC3CCCCC3)NC(=O)[C@H](Cc3cnc[nH]3)NC(=O)[C@@H](CC(C)C)NC(=O)[C@H](CCCN)NC(=O)[C@H](Cc3ccc(OCC(=O)O)cc3)NC(=O)[C@H](Cc3ccc(-c4ccccc4)cc3)NC(=O)[C@H](Cc3ccc(OCC(=O)O)cc3)NC2=O)c1` [Compound 3641] ({CH2CO}-[Dab]Y(Carboxymethyl)D[Phe(3-Me)]Y(Carboxymethyl)[Bip]Y(Carboxymethyl)[Orn][dL]H[Cha][Val(3-OH)]SC[Dab][Aun]-OH; thioether N-14), the IC50 is 7.4 nM.

As for `Cc1cccc(C[C@@H]2NC(=O)[C@H](CC(=O)O)NC(=O)[C@H](Cc3ccc(O)cc3)NC(=O)[C@H](CC(N)=O)NC(=O)CSC[C@@H](C(=O)N[C@@H](CCCCN)C(=O)NCCCCCCCCCCC(=O)O)NC(=O)[C@H](CN)NC(=O)[C@H](C(C)C)NC(=O)[C@H](CC(C)C)NC(=O)[C@H](CCN)NC(=O)[C@@H](CC(C)C)NC(=O)[C@H](CCCN)NC(=O)[C@H](CCCNC(N)=O)NC(=O)[C@H](Cc3ccc(-c4ccccc4)cc3)NC(=O)[C@H](C(C)C)NC2=O)c1` [Compound 2800] ({CH2CO}-NYD[Phe(3-Me)]V[Bip][Cit][Orn][dL][Dab]LV[Dap]CK[Aun]-OH; thioether N-14), the IC50 was 84.6 nM.

Turning to `CC(C)C[C@H]1NC(=O)[C@H](CCCN)NC(=O)[C@H](C(C)C)NC(=O)[C@H](Cc2ccc(-c3ccccc3)cc2)NC(=O)[C@H](C(C)C)NC(=O)[C@H](Cc2c[nH]c3ccccc23)NC(=O)[C@H](CC(=O)O)NC(=O)[C@H](Cc2c[nH]cn2)NC(=O)[C@H](CCCCNC(=N)N)NC(=O)CSC[C@@H](C(=O)N[C@@H](CCN)C(=O)NCCCCCCCCCCC(=O)O)NC(=O)[C@H](CCN)NC(=O)[C@H](C(C)C)NC(=O)[C@H](CC2CCCCC2)NC(=O)[C@H](CCN)NC1=O` [Compound 3269] ({CH2CO}-[hArg]HDWV[Bip]V[Orn][dL][Dab][Cha]V[Dab]C[Dab][Aun]-OH; thioether N-14), the IC50 was 65.5 nM.

Regarding `Cc1cccc(C[C@@H]2NC(=O)[C@H](CC(=O)O)NC(=O)[C@H](Cc3ccc(C(=O)O)cc3)NC(=O)[C@H](Cc3ccncc3)NC(=O)CSC[C@@H](C(=O)N[C@@H](CCN)C(=O)NCCOCCOCC(=O)NCCCCCCCCCCC(=O)O)NC(=O)[C@H](CO)NC(=O)[C@H](C(C)(C)O)NC(=O)[C@H](CC3CCCCC3)NC(=O)[C@H](Cc3cnc[nH]3)NC(=O)[C@@H](CC(C)C)NC(=O)[C@H](CCC(N)=O)NC(=O)[C@H](Cc3ccc(OCC(=O)O)cc3)NC(=O)[C@H](Cc3ccc(-c4ccccc4)cc3)NC(=O)[C@H](Cc3ccc(OCC(=O)O)cc3)NC2=O)c1` [Compound 3749] ({CH2CO}-[4Pal][Phe(4-COOH)]D[Phe(3-Me)]Y(Carboxymethyl)[Bip]Y(Carboxymethyl)Q[dL]H[Cha][Val(3-OH)]SC[Dab][AEEA][Aun]-OH; thioether N-14), the IC50 was determined as 56.6 nM.

In the case of `Cc1cccc(C[C@@H]2NC(=O)[C@H](CC(=O)O)NC(=O)[C@H](Cc3ccc(OCC(=O)O)cc3)NC(=O)[C@H](CCCNC(=N)N)NC(=O)CSC[C@@H](C(=O)N[C@@H](CCN)C(=O)NCCCCCCCCCCC(=O)O)NC(=O)[C@H](C(C)O)NC(=O)[C@H](C(C)C)NC(=O)[C@H](CC3CCCCC3)NC(=O)[C@H](CCN)NC(=O)[C@@H](CC(C)C)NC(=O)[C@H](CCCN)NC(=O)[C@H](Cc3ccc(O)cc3)NC(=O)[C@H](Cc3ccc(-c4ccccc4)cc3)NC(=O)[C@H](CCCc3ccccc3)NC2=O)c1` (stereo partly drawn) [Compound 3420] ({CH2CO}-RY(Carboxymethyl)D[Phe(3-Me)][hhPhe][Bip]Y[Orn][dL][Dab][Cha]V[Thr(3ξ)]C[Dab][Aun]-OH; thioether N-14), the IC50 is 60.9 nM.

Consider `CC(C)C[C@H]1NC(=O)[C@H](CCCN)NC(=O)[C@H](C(C)C)NC(=O)[C@H](Cc2ccc(-c3ccccc3)cc2)NC(=O)[C@H](C(C)C)NC(=O)[C@H](Cc2c[nH]c3ccccc23)NC(=O)[C@H](CC(=O)O)NC(=O)[C@H](Cc2ccncc2)NC(=O)[C@H](Cc2ccc(OCC(=O)O)cc2)NC(=O)CSC[C@@H](C(=O)NCC(=O)NCCOCCOCC(=O)N[C@@H](CCCN)C(=O)NCCCCCCCCCCC(=O)O)NC(=O)[C@H](CN)NC(=O)[C@H](C(C)C)NC(=O)[C@H](CC2CCCCC2)NC(=O)[C@H](CCN)NC1=O` [Compound 3232] ({CH2CO}-Y(Carboxymethyl)[4Pal]DWV[Bip]V[Orn][dL][Dab][Cha]V[Dap]CG[AEEA][Orn][Aun]-OH; thioether N-14), for which the IC50 was 10.1 nM.

Turning to `C#CC[C@H](NC(=O)[C@H](CCN)NC(=O)[C@@H]1CSCC(=O)N[C@@H](CN2CCOCC2)C(=O)N[C@@H](Cc2ccc(OCC(=O)O)cc2)C(=O)N[C@@H](CC(=O)O)C(=O)N[C@@H](Cc2cccc(C)c2)C(=O)N[C@@H](Cc2ccc(OCC(=O)O)cc2)C(=O)N[C@@H](Cc2ccc(-c3ccccc3)cc2)C(=O)N[C@@H](Cc2ccc(OCC(=O)O)cc2)C(=O)N[C@@H](CCCN)C(=O)N[C@H](CC(C)C)C(=O)N[C@@H](CCN)C(=O)N[C@@H](CC2CCCCC2)C(=O)N[C@@H](C(C)(C)O)C(=O)N[C@@H](CO)C(=O)N1)C(=O)NCCCCCCCCCCC(=O)O` [Compound 1279] ({CH2CO}-[Ala(morpholin-4-yl)]Y(Carboxymethyl)D[Phe(3-Me)]Y(Carboxymethyl)[Bip]Y(Carboxymethyl)[Orn][dL][Dab][Cha][Val(3-OH)]SC[Dab][Pra][Aun]-OH; thioether N-14), the IC50 stood at 9 nM.

For the compound `Cc1cccc(C[C@@H]2NC(=O)[C@H](CC(=O)O)NC(=O)[C@H](Cc3ccc(OCC(=O)O)cc3)NC(=O)[C@H](CCCCNC(=N)N)NC(=O)CSC[C@@H](C(=O)N[C@@H](CCN)C(=O)NCCCCCCCCCCC(=O)O)NC(=O)[C@H](C(C)O)NC(=O)[C@H](C(C)C)NC(=O)[C@H](CC3CCCCC3)NC(=O)[C@H](CCN)NC(=O)[C@@H](CC(C)C)NC(=O)[C@H](CCCN)NC(=O)[C@H](CCCNC(N)=O)NC(=O)[C@H](Cc3ccc(-c4ccccc4)cc3)NC(=O)[C@H](C(C)C)NC2=O)c1` (stereo partly drawn) [Compound 3302] ({CH2CO}-[hArg]Y(Carboxymethyl)D[Phe(3-Me)]V[Bip][Cit][Orn][dL][Dab][Cha]V[Thr(3ξ)]C[Dab][Aun]-OH; thioether N-14), the IC50 was 14.1 nM.

In the case of `Cc1cccc(C[C@@H]2NC(=O)[C@H](CC(=O)O)NC(=O)[C@H](Cc3ccc(OCC(=O)O)cc3)NC(=O)[C@H](CN)NC(=O)CSC[C@@H](C(=O)N[C@@H](C)C(=O)NCCOCCOCC(=O)NCCCCCCCCCCC(=O)O)NC(=O)[C@H]([C@@H](C)O)NC(=O)[C@H](C(C)C)NC(=O)[C@H](CC3CCCCC3)NC(=O)[C@H](CCN)NC(=O)[C@@H](CC(C)C)NC(=O)[C@H](CCCN)NC(=O)[C@H](CCCNC(N)=O)NC(=O)[C@H](Cc3ccc(-c4ccccc4)cc3)NC(=O)[C@H](C(C)C)NC2=O)c1` [Compound 1029] ({CH2CO}-[Dap]Y(Carboxymethyl)D[Phe(3-Me)]V[Bip][Cit][Orn][dL][Dab][Cha]VTCA[AEEA][Aun]-OH; thioether N-14), the IC50 was found to be 7.4 nM.

`CC(C)C[C@@H]1NC(=O)[C@H](Cc2c[nH]c3ccccc23)NC(=O)[C@H](CC(=O)O)NC(=O)[C@H](Cc2ccc(OCC(=O)O)cc2)NC(=O)[C@H](CCN)NC(=O)CSC[C@@H](C(=O)NCCOCCOCC(=O)NCCCCCCCCCCC(=O)O)NC(=O)[C@H](C(C)O)NC(=O)[C@H](C(C)C)NC(=O)[C@H](CC2CCCCC2)NC(=O)[C@H](Cc2cnc[nH]2)NC(=O)[C@@H](CC(C)C)NC(=O)[C@H](CCCN)NC(=O)[C@H](C(C)C)NC(=O)[C@H](Cc2ccc(-c3ccccc3)cc2)NC1=O` (stereo partly drawn) [Compound 3700] ({CH2CO}-[Dab]Y(Carboxymethyl)DWL[Bip]V[Orn][dL]H[Cha]V[Thr(3ξ)]C[AEEA][Aun]-OH; thioether N-14): the IC50 came to 56.7 nM.

As for `Cc1cccc(C[C@@H]2NC(=O)[C@H](CC(=O)O)NC(=O)[C@H](Cc3ccc(OCC(=O)O)cc3)NC(=O)[C@H](Cc3ccncc3)NC(=O)CSC[C@@H](C(=O)N[C@@H](CCN)C(=O)NCCCCCCCCCCC(=O)O)NC(=O)[C@H]([C@@H](C)O)NC(=O)[C@H](C(C)C)NC(=O)[C@H](CC3CCCCC3)NC(=O)[C@H](CCN)NC(=O)[C@@H](CC(C)C)NC(=O)[C@H](CCCN)NC(=O)[C@H](Cc3ccc(OCC(=O)O)cc3)NC(=O)[C@H](Cc3ccc(-c4ccccc4)cc3)NC(=O)[C@H](C(C)(C)O)NC2=O)c1` [Compound 2151] ({CH2CO}-[4Pal]Y(Carboxymethyl)D[Phe(3-Me)][Val(3-OH)][Bip]Y(Carboxymethyl)[Orn][dL][Dab][Cha]VTC[Dab][Aun]-OH; thioether N-14), the IC50 was 40.6 nM.
